This experiment concerns Rhizoctonia solani AG 2-2. In words: Inhibition of the growth of Rhizoctonia solani AG 2-2 on nutrient medium / protective. The format is cell-based. Conditions: 0% = untreated control, 100% = complete inhibition of fungal growth, evaluation after 2 to 14 days. Here is the method: Inhibition of the growth of Rhizoctonia solani AG 2-2 (anastomosis group 2-2)/protective
The substances are tested on suitable nutrient media for their activity against Rhizoctonia solani AG 2-2. To this end, the stated amount of active compound is in each case added to and intensively mixed with the stated amount of nutrient medium. The mixture in question is transferred into a culture vessel, inoculated with Rhizoctonia solani AG 2-2 and incubated at a suitable temperature. At certain intervals, the growth of the microorganism is assessed.
A nutrient medium of the following composition is used:
These components are dissolved in 1000 ml of distilled water and autoclaved at 121° C. for 30 minutes. The active compound at the stated concentration is then mixed with the nutrient medium. However, in all cases solvent and nutrient medium are present in the following weight ratio:
These mixtures are poured into Petri dishes having a diameter of 9 cm and a volume of 10 ml. Once the nutrient substrate has cooled and solidified, it is inoculated in the centre of the Petri dish with an inoculation piece having a diameter of 0.5 cm.
Evaluation is carried out after 2 to 14 days—depending on the rate of growth of the microorganism. The effect on the development of the culture is determined by comparing the individual test samples. 0% means an efficacy which corresponds to that of the untreated test variant. In contrast, an efficacy of 100% means complete inhibition of fungal growth.

[1] abbreviates: active compound application rate 0.1 ppm in nutrient medium.
The mark [2] stands for this setting: active compound application rate 1 ppm in nutrient medium.
Where [3] appears, read: active compound application rate 10 ppm in nutrient medium.
Where [4] appears, read: active compound application rate 100 ppm in nutrient medium.

SMILES strings stand for the structures.

The source of these data is US20010016605A1, “Use of a phenylurea derivative for controlling crown and root rot in beet” (priority 2000, published 2001).

On to `CO/C=C(/C(=O)OC)c1ccccc1Oc1cc(Oc2ccccc2C#N)ncn1` [azoxystrobin], for which the Efficacy in % worked out at 45% under setting [1], 48% under setting [2], 59% under setting [3] and 64% under setting [4].
As for `Cc1cc(O)no1` [hymexazol], the Efficacy in % by setting is: under setting [1], 7%; under setting [2], 5%; under setting [3], 8%; under setting [4], 35%.
On the same counts, the results for `O=C(Nc1ccccc1)N(Cc1ccc(Cl)cc1)C1CCCC1` [pencycuron, N-4-chloro-benzyl-N-cyclopentyl-N′-phenylurea] are 70%, 98%, 100% and 100%.
